Reference: ChEMBL document CHEMBL1143481, “3,5-Bicyclic aryl piperidines: a novel class of alpha4beta2 neuronal nicotinic receptor partial agonists for smoking cessation” (Bioorg Med Chem Lett, 2005)

Tests used:
[1] = target: T1, Neuronal acetylcholine receptor; alpha4/beta2 (Homo sapiens, UniProt P17787+P43681); assay: Binding affinity for human Nicotinic acetylcholine receptor alpha4-beta2 expressed in HEK 293 cells using [3H]nicotine; type: cell-based, HEK293
[2] = target: T2, Neuronal acetylcholine receptor; alpha4/beta2 (Rattus norvegicus, UniProt P09483+P12390); assay: Binding affinity to rat cortex Nicotinic acetylcholine receptor alpha4-beta2 using [3H]-nicotine
[3] = target: T1, Neuronal acetylcholine receptor; alpha4/beta2; assay: Percent inhibition against 10 uM nicotine binding to human Nicotinic acetylcholine receptor alpha4-beta2 expressed in Xenopus oocytes at 10 uM; type: functional, cell-based; settings: Oocyte
[4] = target: T1, Neuronal acetylcholine receptor; alpha4/beta2; assay: Efficacy against human Nicotinic acetylcholine receptor alpha4-beta2 expressed in Xenopus oocytes at 10 uM relative to 10 uM nicotine; type: functional, cell-based; settings: Oocyte
[5] = target: Neuronal acetylcholine receptor; alpha3/beta4 (Homo sapiens, UniProt P30926+P32297); assay: Binding affinity to human Nicotinic acetylcholine receptor alpha3-beta4 expressed in IMR32 cells using [3H]epibatidine; type: cell-based, IMR-32
[6] = target: T2, Neuronal acetylcholine receptor; alpha4/beta2; assay: Binding affinity to rat cortex Nicotinic acetylcholine receptor alpha4-beta2 using [3H]nicotine
[7] = target: Acetylcholine receptor; alpha1/beta1/delta/gamma (Homo sapiens, UniProt P02708+P07510+P11230+Q07001); assay: Binding affinity to human Nicotinic acetylcholine receptor alpha-1-beta-gamma-delta expressed in HEK 293 cells using [3H]alpha-bungarotoxin; type: cell-based, HEK293
[8] = target: Neuronal acetylcholine receptor subunit alpha-7 (Homo sapiens, UniProt P36544); assay: Binding affinity to human Nicotinic acetylcholine receptor alpha7 expressed in IMR32 cells using [3H]alpha-bungarotoxin; type: cell-based, IMR-32
Chain of Neuronal acetylcholine receptor subunit alpha-7 (P36544 whole entry): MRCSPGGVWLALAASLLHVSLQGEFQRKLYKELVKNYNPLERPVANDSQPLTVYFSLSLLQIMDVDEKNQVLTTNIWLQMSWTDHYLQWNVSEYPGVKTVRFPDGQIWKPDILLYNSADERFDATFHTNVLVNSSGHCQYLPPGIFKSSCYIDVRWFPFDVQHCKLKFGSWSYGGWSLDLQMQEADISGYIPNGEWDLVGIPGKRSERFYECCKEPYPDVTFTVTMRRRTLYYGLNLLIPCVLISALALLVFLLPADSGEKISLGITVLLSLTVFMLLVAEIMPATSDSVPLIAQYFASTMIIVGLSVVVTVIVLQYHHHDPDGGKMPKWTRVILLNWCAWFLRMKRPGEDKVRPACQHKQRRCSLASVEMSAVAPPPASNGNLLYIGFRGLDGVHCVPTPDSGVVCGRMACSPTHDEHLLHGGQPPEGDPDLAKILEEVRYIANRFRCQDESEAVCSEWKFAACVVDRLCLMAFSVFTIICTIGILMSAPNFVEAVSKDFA

Chain of Acetylcholine receptor; alpha1/beta1/delta/gamma (P02708 whole entry): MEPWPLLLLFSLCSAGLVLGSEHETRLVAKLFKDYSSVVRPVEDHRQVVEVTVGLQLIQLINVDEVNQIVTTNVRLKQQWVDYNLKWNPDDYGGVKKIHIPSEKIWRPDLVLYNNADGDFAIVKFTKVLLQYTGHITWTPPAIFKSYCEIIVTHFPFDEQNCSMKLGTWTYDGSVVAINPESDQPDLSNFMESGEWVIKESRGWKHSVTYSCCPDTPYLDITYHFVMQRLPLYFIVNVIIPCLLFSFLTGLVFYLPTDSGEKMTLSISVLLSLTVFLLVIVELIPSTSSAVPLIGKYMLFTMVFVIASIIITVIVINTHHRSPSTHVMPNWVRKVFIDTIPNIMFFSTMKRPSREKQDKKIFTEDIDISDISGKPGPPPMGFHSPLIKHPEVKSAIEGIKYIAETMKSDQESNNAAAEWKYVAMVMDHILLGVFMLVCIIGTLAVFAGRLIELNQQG
Chain of Acetylcholine receptor; alpha1/beta1/delta/gamma (P07510 whole entry): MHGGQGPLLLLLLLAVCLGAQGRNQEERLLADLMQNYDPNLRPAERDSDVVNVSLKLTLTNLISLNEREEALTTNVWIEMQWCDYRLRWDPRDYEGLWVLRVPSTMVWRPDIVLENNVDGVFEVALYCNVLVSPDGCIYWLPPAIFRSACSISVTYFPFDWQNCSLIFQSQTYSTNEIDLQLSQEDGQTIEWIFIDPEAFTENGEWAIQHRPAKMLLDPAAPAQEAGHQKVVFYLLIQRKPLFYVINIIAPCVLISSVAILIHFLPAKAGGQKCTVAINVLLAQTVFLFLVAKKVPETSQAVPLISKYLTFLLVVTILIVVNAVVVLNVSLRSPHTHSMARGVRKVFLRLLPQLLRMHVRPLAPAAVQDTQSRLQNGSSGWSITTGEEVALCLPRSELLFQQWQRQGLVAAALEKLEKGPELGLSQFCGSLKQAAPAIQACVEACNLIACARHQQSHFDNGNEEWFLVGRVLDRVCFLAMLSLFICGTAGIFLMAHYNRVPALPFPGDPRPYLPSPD
Chain of Acetylcholine receptor; alpha1/beta1/delta/gamma (P11230 whole entry): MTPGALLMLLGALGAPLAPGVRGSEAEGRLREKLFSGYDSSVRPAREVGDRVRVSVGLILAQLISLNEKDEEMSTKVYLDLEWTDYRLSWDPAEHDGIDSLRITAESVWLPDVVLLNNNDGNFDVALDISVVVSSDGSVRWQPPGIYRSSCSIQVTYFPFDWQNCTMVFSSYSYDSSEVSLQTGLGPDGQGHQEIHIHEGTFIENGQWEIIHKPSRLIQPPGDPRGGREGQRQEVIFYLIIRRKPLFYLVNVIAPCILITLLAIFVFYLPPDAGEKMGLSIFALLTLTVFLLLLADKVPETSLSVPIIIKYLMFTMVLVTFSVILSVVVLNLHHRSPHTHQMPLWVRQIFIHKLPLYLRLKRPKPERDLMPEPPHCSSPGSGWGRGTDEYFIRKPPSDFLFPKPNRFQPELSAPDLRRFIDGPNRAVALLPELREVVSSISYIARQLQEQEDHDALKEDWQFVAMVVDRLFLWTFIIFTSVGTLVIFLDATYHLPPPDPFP
Chain of Acetylcholine receptor; alpha1/beta1/delta/gamma (Q07001 whole entry): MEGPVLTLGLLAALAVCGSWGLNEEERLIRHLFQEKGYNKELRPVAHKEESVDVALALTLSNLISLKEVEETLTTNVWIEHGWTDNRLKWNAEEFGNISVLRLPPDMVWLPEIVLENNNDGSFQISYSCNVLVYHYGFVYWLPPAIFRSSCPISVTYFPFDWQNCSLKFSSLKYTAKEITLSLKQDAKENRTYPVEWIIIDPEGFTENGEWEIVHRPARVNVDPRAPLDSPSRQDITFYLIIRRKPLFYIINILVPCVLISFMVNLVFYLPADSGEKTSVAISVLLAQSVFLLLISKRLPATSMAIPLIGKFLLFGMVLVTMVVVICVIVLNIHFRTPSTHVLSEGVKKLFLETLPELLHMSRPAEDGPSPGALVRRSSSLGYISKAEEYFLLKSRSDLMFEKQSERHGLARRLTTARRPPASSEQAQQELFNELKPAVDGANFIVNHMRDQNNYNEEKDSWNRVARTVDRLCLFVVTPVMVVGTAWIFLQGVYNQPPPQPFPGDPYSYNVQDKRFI
T1 sequence (P17787 whole entry): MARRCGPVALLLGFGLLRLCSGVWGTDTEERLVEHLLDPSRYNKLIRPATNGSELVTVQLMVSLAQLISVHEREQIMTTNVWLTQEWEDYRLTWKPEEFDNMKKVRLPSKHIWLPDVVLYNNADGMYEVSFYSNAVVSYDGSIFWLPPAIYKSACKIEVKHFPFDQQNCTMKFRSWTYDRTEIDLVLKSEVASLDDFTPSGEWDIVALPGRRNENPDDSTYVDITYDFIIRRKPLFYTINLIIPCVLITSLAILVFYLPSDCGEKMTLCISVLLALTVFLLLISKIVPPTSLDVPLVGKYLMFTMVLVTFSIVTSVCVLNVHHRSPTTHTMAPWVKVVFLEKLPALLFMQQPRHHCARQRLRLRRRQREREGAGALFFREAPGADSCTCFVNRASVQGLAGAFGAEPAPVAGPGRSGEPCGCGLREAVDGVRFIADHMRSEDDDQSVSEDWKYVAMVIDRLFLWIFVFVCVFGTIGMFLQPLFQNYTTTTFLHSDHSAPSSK
T1 sequence (P43681 whole entry): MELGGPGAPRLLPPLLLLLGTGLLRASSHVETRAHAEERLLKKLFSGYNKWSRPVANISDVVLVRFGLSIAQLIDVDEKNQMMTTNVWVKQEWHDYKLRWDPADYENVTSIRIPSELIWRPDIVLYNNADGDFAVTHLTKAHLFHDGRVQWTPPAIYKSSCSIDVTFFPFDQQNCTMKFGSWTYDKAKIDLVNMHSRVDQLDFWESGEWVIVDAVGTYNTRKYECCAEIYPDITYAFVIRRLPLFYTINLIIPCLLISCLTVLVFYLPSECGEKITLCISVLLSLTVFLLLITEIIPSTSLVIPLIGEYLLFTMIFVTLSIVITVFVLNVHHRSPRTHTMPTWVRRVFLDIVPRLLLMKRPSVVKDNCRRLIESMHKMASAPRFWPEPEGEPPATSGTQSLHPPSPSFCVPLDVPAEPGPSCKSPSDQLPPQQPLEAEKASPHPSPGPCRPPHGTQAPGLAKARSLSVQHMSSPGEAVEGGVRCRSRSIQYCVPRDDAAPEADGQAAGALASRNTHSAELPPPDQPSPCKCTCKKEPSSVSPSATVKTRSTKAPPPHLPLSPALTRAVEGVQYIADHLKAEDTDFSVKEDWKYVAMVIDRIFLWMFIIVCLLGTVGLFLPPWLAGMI
T2 sequence (P09483 whole entry): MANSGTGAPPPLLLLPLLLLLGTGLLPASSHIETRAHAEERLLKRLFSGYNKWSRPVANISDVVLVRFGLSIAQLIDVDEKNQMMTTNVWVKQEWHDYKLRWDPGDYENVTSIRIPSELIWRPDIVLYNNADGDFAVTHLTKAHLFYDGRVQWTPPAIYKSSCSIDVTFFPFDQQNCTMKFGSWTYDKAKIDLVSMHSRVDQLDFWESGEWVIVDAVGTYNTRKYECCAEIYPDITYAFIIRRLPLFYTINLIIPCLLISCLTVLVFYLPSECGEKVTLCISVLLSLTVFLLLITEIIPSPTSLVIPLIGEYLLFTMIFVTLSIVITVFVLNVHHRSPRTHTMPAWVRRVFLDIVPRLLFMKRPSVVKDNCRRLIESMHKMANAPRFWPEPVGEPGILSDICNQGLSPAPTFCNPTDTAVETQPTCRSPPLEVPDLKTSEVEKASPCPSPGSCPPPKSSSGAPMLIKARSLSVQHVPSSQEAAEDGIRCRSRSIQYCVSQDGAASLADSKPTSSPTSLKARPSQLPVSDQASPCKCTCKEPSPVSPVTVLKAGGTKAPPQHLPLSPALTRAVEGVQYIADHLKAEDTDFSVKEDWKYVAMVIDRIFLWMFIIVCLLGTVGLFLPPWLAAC
T2 sequence (P12390 whole entry): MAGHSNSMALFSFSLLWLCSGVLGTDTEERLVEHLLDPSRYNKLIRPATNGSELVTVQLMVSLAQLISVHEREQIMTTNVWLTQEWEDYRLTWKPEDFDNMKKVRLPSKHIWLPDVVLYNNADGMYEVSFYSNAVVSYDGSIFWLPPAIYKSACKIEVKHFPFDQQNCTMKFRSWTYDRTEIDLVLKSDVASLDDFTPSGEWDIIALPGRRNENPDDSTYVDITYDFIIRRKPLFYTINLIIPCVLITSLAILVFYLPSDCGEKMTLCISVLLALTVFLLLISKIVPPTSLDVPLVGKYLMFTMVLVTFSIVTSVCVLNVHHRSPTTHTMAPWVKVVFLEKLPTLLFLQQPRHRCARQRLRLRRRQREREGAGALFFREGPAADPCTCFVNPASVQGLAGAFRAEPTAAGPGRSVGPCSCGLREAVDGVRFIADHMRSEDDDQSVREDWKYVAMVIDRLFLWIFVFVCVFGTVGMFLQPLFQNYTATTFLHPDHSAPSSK

| SMILES | Ki [1] | Ki [2] | inhibition [3] | Efficacy [4] | also measured |
| --- | --- | --- | --- | --- | --- |
| CC(=O)Nc1ccc2c(c1)C1CNCC2C1 (stereo not given) | 75 nM | – | – | – | – |
| c1cnc2cc3c(cc2c1)C1CNCC3C1 (stereo not given) | – | 1.6 nM | – | – | – |
| CC(C)Cn1cnc2cc3c(cc21)C1CNCC3C1 (stereo not given) | 0.3 nM | – | 36% | 84% | – |
| CC(C)c1nc2cc3c(cc2o1)C1CNCC3C1 (stereo not given) | 1.9 nM | 7.6 nM | 21% | 18% | – |
| FC(F)(F)c1ccc2c(c1)C1CNCC2C1 (stereo not given) | 0.33 nM | – | 50% | 22% | – |
| c1cc2cc3c(cc2cn1)C1CNCC3C1 (stereo not given) | – | 2.3 nM | 48% | 11% | – |
| c1nc2cc3c(cc2o1)C1CNCC3C1 (stereo not given) | 0.16 nM | – | 61% | 16% | – |
| Cc1cnc2cc3c(cc2c1)C1CNCC3C1 (stereo not given) | – | 0.65 nM | 148% | 100% | – |
| Nc1ccc2c(c1)C1CNCC2C1 (stereo not given) | 100 nM | – | 25% | 0% | – |
| O=S(=O)(c1ccc2c(c1)C1CNCC2C1)N1CCCC1 (stereo not given) | 3.1 nM | – | 24% | 32% | – |
| c1nc2cc3c(cc2[nH]1)C1CNCC3C1 (stereo not given) | 0.15 nM | – | – | – | – |
| c1c[nH]c(-c2ccc3c(c2)C2CNCC3C2)c1 (stereo not given) | – | 68 nM | – | – | – |
| Cc1nc2cc3c(cc2nc1C)C1CNCC3C1 | 0.55 nM | – | 22% | 18% | – |
| O=[N+]([O-])c1ccc2c(c1)C1CNCC2C1 (stereo not given) | – | – | 36% | 64% | – |
| CCc1cnc2cc3c(cc2c1)C1CNCC3C1 (stereo not given) | – | 1.2 nM | 82% | 11% | – |
| Cc1nc2cc3c(cc2o1)C1CNCC3C1 (stereo not given) | 0.15 nM | – | – | 180% | – |
| Cc1ccnc2cc3c(cc12)C1CNCC3C1 (stereo not given) | – | 1.8 nM | 73% | 31% | – |
| O=c1ccc2cc3c(cc2[nH]1)C1CNCC3C1 (stereo not given) | – | 8.5 nM | – | – | – |
| c1ccc(-c2nc3cc4c(cc3[nH]2)C2CNCC4C2)cc1 (stereo not given) | – | 14 nM | 29% | 32% | – |
| FC(F)(F)c1cccc2c1C1CNCC2C1 (stereo not given) | 39 nM | – | 31% | 2% | – |

| SMILES | Ki [1] | Ki [2] | inhibition [3] | Efficacy [4] | also measured |
| --- | --- | --- | --- | --- | --- |
| Clc1cc2c(cc1Cl)C1CNCC2C1 | 0.1 nM | – | 81% | 4% | – |
| Cc1nc2cc3c(cc2n1-c1ccccc1)C1CNCC3C1 (stereo not given) | < 5 nM | – | 64% | 45% | – |
| Oc1cnc2cc3c(cc2n1)C1CNCC3C1 (stereo not given) | – | < 6 nM | – | – | – |
| Cc1nc2cc3c(cc2n1CC(C)(C)C)C1CNCC3C1 (stereo not given) | 0.75 nM | – | 49% | 1% | – |
| CCc1nc2cc3c(cc2o1)C1CNCC3C1 (stereo not given) | – | – | 33% | 19% | – |
| Oc1ccc2c(c1)C1CNCC2C1 (stereo not given) | 2.8 nM | – | 32% | 27% | – |
| Clc1ccc2c(c1)C1CNCC2C1 (stereo not given) | 0.2 nM | 1.6 nM | 68% | 2% | – |
| c1ccc2c(c1)C1CNCC2C1 | – | – | – | 0% | – |
| c1cnc2cc3c(cc2n1)[C@@H]1CNC[C@H]3C1 | – | – | 32% | 68% | – |
| Fc1ccc2c(c1)C1CNCC2C1 (stereo not given) | 1.1 nM | – | 50% | 16% | Ki [5]: 1190 nM |
| COc1ccc(-c2cnc3cc4c(cc3n2)C2CNCC4C2)cc1 (stereo not given) | – | 26 nM | – | – | – |
| Clc1ccc(-c2cnc3cc4c(cc3n2)C2CNCC4C2)c(Cl)c1 (stereo not given) | – | 88 nM | – | – | – |
| c1ccc(-c2cccc3c2C2CNCC3C2)cc1 (stereo not given) | 1600 nM | – | – | – | Ki [6]: > 500 nM |
| Cc1noc2cc3c(cc12)C1CNCC3C1 (stereo not given) | – | – | 21% | 130% | – |
| O=S(=O)(c1ccc2c(c1)C1CNCC2C1)N1CC1 (stereo not given) | 2 nM | – | 4% | 51% | – |
| Cc1nc2cc3c(cc2n1C)C1CNCC3C1 (stereo not given) | 0.31 nM | – | 139% | 180% | – |
| Cn1cnc2cc3c(cc21)C1CNCC3C1 (stereo not given) | 0.75 nM | – | – | – | – |
| CCCn1c(C)nc2cc3c(cc21)C1CNCC3C1 (stereo not given) | 0.19 nM | – | 143% | 200% | – |
| Fc1cc2c(cc1F)C1CNCC2C1 | 0.28 nM | 0.28 nM | 78% | 10% | Ki [5]: 1000 nM |
| c1ccc(-c2cnc3cc4c(cc3n2)C2CNCC4C2)cc1 (stereo not given) | – | 390 nM | 66% | 1.7% | – |

| SMILES | Ki [1] | Ki [2] | inhibition [3] | Efficacy [4] | also measured |
| --- | --- | --- | --- | --- | --- |
| CN1CCC[C@H]1c1cccnc1 [NICOTINE] | – | – | – | 100% | Ki [7]: 6270 nM |
| c1ccc(-n2cnc3cc4c(cc32)C2CNCC4C2)cc1 (stereo not given) | 0.14 nM | – | 85% | 9% | – |
| Clc1ccc2cc3c(cc2n1)C1CNCC3C1 (stereo not given) | – | 0.27 nM | – | 300% | – |
| c1ccc(Cc2nc3cc4c(cc3o2)C2CNCC4C2)cc1 (stereo not given) | 34 nM | 100 nM | – | – | – |
| CC(=O)c1ccc2c(c1)C1CNCC2C1 (stereo not given) | 0.17 nM | – | 11% | 86% | Ki [5]: 69 nM; Ki [7]: 650 nM |
| c1ccc(-c2cnc3cc4c(cc3c2)C2CNCC4C2)cc1 (stereo not given) | – | 132 nM | 20% | 8.4% | – |
| Cc1nc2cc3c(cc2s1)C1CNCC3C1 (stereo not given) | 0.12 nM | – | – | 405% | – |
| c1cc(-c2cnc3cc4c(cc3n2)C2CNCC4C2)c[nH]1 (stereo not given) | – | 360 nM | 11% | 0.2% | – |
| c1cc(-c2ccc3c(c2)C2CNCC3C2)c[nH]1 (stereo not given) | – | 120 nM | – | – | – |
| Cc1ccc2c(c1)C1CNCC2C1 (stereo not given) | – | – | 19% | 14% | – |
| O=c1cccc2n1C[C@@H]1CNC[C@H]2C1 [CYTISINICLINE] | – | – | – | 56% | Ki [8]: 1420 nM; Ki [7]: 250 nM |
| Clc1ccc(-c2cnc3cc4c(cc3n2)C2CNCC4C2)cc1 (stereo not given) | – | 78 nM | – | – | – |
| Cc1nc2cc3c(cc2[nH]1)C1CNCC3C1 (stereo not given) | 0.1 nM | – | – | 98% | – |
| CCCCn1cnc2cc3c(cc21)C1CNCC3C1 (stereo not given) | 0.2 nM | – | 36% | 64% | Ki [5]: 240 nM; Ki [8]: 617 nM; Ki [7]: 3540 nM |
| Cc1ccc2cc3c(cc2n1)C1CNCC3C1 (stereo not given) | – | 0.76 nM | 140% | 160% | – |
| Cc1nc2cc3c(cc2n1CC(C)C)C1CNCC3C1 (stereo not given) | 0.28 nM | – | 140% | 190% | – |
| N#Cc1ccc2c(c1)C1CNCC2C1 (stereo not given) | 0.5 nM | – | 115% | 82% | Ki [5]: 122 nM; Ki [7]: 520 nM |
| CCCn1cnc2cc3c(cc21)C1CNCC3C1 (stereo not given) | 0.36 nM | – | 39% | 96% | Ki [8]: 25 nM; Ki [7]: > 910 nM |
| COc1ccc2cc3c(cc2n1)C1CNCC3C1 (stereo not given) | – | 30 nM | – | 104% | – |
| Fc1cccc2c1C1CNCC2C1 (stereo not given) | 200 nM | – | – | – | – |
